System: HEK293 cells
Test: RNA-Seq of HEK293 cells treated with LMI070 for LMI070-induced splicing events
Type: cell-based, Human
Settings: HEK293, 25 nM LMI070 for 12 hours
Method: Tables 1A-1E provide the genomic locations of candidate LMI070-induced exons and the frequency of events from RNA-Seq datasets. Summarized here are the differentially expressed candidate LMI070-induced splicing positions as identified by RNA-Seq of HEK293 cells treated with either DMSO or LMI070 (25 nM). All candidates shown were manually selected from a bioinformatically generated list of top hits based on their suitability for construction of an exon switching genomic minigene, their exclusivity to the LMI070 condition, and their minimal to undetectable levels in DMSO treated cells. The top 25 rows of each table indicate hits observed exclusively upon LMI070 exposure. The following 22 rows of each table indicate candidates where splicing was enriched but not totally exclusive to LMI070 treatment.
Table 1A provides the GRCh38 genomic positions used to create the splice event-containing genomic minigene, the GRCh38 genomic positions of the pseudoexon created by LMI070-induced splicing, the number of exon-exon junction spanning reads observed with DMSO treatment, and the number of exon-exon junctions spanning reads observed with LMI070 treatment. […]
RNA-Seq Methods. […] Splice junction output by STAR were quantified using a custom R script designed to identify splicing events unique to LMI070 treatment. Top ranking LMI070-exclusive splice events were manually assessed for their applicability to function as a splicing switch. […] Candidate splice events were visually evaluated using the Sashimi plot function available in IGV (Thorvaldsdottir et al., 2013; Katz et al., 2015).
Next, exons that were more sensitive to LMI070 to reduce non-target splice events were sought out. […] Reads obtained from 4 control and 4 LMI070 treated samples were aligned to the genome using the STAR aligner (Dobin & Gingeras, 2015) and splicing events exclusive to the LMI070 treated samples identified (FIGS. 2A and 2F-2N; Table 1). […]

CC1(C)CC(Oc2ccc(-c3ccc(-c4cn[nH]c4)cc3O)nn2)CC(C)(C)N1 [LMI070, 5-(1H-Pyrazol-4-yl)-2-(6-((2,2,6,6-tetramethylpiperidin-4-yl)oxy)pyridazin-3-yl)phenol]
events evident in all treated and in one of the control untreated samples: 22
events found exclusively and in all LMI070 treated samples: 23
novel splicing events identified following LMI070 treatment (threshold average greater than 5 novel intron splicing events): 45
